{
  "source": "patent US5641792A",
  "about": "“Benzoylguanidines substituted by heterocyclic N-oxide, process for their preparation and pharmaceutical compositions containing them” (priority 1994, dated 1997)",
  "key": {"[1]": {"target": "T1, Na^+ /H^+ exchanger of rabbit erythrocytes (Oryctolagus cuniculus, UniProt P23791)", "T1 construct": "determine the Na^+ influx into the erythrocytes via Na^+ /H^+ exchange by flame photometry; endogenous in cells; host or cells: erythrocytes in blood from the ear arteries of cholesterol-fed White New Zealand rabbits (Ivanovas)", "T1 sequence (P23791 whole entry)": "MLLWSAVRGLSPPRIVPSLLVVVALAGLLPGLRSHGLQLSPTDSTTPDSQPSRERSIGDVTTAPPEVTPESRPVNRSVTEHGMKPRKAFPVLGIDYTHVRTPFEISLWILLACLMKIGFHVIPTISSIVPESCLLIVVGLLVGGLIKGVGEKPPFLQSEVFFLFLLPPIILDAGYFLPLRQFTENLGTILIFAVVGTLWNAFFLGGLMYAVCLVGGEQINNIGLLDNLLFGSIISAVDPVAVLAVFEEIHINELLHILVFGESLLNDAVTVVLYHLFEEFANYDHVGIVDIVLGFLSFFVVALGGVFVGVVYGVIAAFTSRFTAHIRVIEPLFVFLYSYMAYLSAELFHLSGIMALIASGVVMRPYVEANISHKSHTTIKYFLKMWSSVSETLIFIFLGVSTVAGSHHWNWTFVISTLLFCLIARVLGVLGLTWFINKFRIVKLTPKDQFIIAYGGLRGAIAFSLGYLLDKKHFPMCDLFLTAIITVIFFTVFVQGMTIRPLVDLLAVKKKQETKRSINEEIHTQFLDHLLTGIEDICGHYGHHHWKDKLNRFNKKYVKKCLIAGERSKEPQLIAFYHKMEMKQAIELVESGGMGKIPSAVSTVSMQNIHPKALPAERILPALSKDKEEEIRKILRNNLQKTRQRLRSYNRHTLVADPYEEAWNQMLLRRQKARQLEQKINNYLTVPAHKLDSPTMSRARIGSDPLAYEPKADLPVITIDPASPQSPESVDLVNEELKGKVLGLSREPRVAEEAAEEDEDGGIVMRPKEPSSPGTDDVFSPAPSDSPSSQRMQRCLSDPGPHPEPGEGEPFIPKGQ", "experiment": "Inhibition of the Na^+ /H^+ Exchanger of Rabbit Erythrocytes (amiloride-sensitive Na^+ influx, flame photometry)", "assay_type": "cell-based, rabbit (White New Zealand)", "settings": "cholesterol-fed rabbits, pH 7.4, 37° C.", "text": "Inhibition of the Na^+ /H^+ Exchanger of Rabbit Erythrocytes\nWhite New Zealand rabbits (Ivanovas) were given a standard diet with 2% of cholesterol for six weeks in order to activate the Na^+ /H^+ exchange and in this way to be able to determine the Na^+ influx into the erythrocytes via Na^+ /H^+ exchange by flame photometry. The blood was removed from the ear arteries and rendered noncoagulable by 25 IU of potassium-heparin. A portion of each sample was used for duplicate determination of the hematocrit by centrifugation. Aliquots of in each case 100 μl were used for measurement of the starting Na^+ content of the erythrocytes.\nTo determine the amiloride-sensitive sodium influx, 100 μl of each blood sample were incubated in 5 ml portions each of a hyperosmolar salt/sucrose medium (mmol/l: 140 NaCl, 3 KCl, 150 sucrose, 0.1 ouabain, 20 tris-hydroxymethylaminomethane) at pH 7.4 and 37° C. The erythrocytes were then washed three times with ice-cold MgCl2 /ouabain solution (mmol/l: 112 MgCl2, 0.1 ouabain) and hemolyzed in 2.0 ml of distilled water. The intracellular sodium content was determined by flame photometry.\nThe Na^+ net influx was calculated from the difference between the starting sodium values and the sodium content of the erythrocytes after incubation. The sodium influx which can be inhibited by amiloride resulted from the difference between the sodium content of the erythrocytes after incubation with and without 3×10^-4 mol/l of amiloride. This procedure was also followed with compounds according to the invention."}, "[2]": {"test_system": "rat hearts", "settings": "isolated rat hearts, cited from earlier work"}, "[3]": {"settings": "cited from earlier work"}},
  "note": "Where a name gives a salt, the structure may show the parent alone.",
  "data": [
    {"smiles": "NC(N)=NC(=O)c1ccc(Oc2ccc[n+]([O-])c2)c(C(F)(F)F)c1", "note": "[Example 1, 4-(pyridine N-oxide-3-yloxy)-3-trifluoromethyl-benzoylguanidine, hydrochloride]", "values": [
      {"measurement": "IC50", "setting": "[1]", "value": 80, "unit": "nM"}
    ]},
    {"smiles": "CCN(c1nc(N)c(C(=O)NC(=N)N)nc1Cl)C(C)C", "note": "[ethylisopropylamiloride]", "values": [
      {"measurement": "potency relative to amiloride in this model (ventricular fibrillation)", "setting": "[2]; compared with amiloride", "value": "even more potent than amiloride"}
    ]},
    {"smiles": "Cc1ccc2cc(Oc3ccc(C(=O)N=C(N)N)cc3C(F)(F)F)ccc2[n+]1[O-]", "note": "[Example 3, 4-(quinaldine N-oxide-6-yloxy)-3-trifluoromethyl-benzoylguanidine, hydrochloride]", "values": [
      {"measurement": "IC50", "setting": "[1]", "value": 19, "unit": "nM"}
    ]},
    {"smiles": "NC(N)=NC(=O)c1nc(Cl)c(N)nc1N", "note": "[amiloride, Amiloride]", "values": [
      {"measurement": "suppression of artificially induced ventricular fibrillation", "setting": "[2]; Eur. Heart J. 9 (suppl. 1): 167 (1988)", "value": "suppressed completely"},
      {"measurement": "antiarrhythmic effect", "setting": "[3]; Circulation 79, 1257-63 (1989)", "value": "only weak"},
      {"measurement": "accompanying action (side-effects)", "setting": "[3]; accompanies the antiarrhythmic effect", "value": "antihypertensive and saluretic action"}
    ]},
    {"smiles": "Cc1ccc2cc(Oc3ccc(C(=O)N=C(N)N)cc3S(C)(=O)=O)ccc2[n+]1[O-]", "note": "[Example 2, 4-(quinaldine N-oxide-6-yloxy)-3-methylsulfonyl-benzoylguanidine, hydrochloride]", "values": [
      {"measurement": "IC50", "setting": "[1]", "value": 300, "unit": "nM"}
    ]}
  ]
}
